Values of other authors, collected in US6495521B2, “Combination therapy method for treating chronic hepatitis B” (SciClone Pharmaceuticals, Inc., priority 1993, dated 2002).

Assays:
hepatitis B virus = conditions: patients with chronic active hepatitis B who received the peptide
[1] = individuals suffering from chronic active hepatitis B

## Ac-Ser-Asp-Ala-Ala-Val-Asp-Thr-Ser-Ser-Glu- Ile-Thr-Thr-Lys-Asp-Leu-Lys-Glu-Lys-Lys-Glu- Val-Val-Glu-Glu-Ala-Glu-Asn-OH (Ac-SDAAVDTSSEITTKDLKEKKEVVEEAEN-OH) [thymosin alpha-1, 28 amino acid peptide originally isolated from calf thymus thymosin fraction 5]
Hepatitis B virus
  patients who cleared hepatitis B virus DNA from serum and persistently tested negative for serum HBV DNA after treatment was terminated: 75%
[1]
  lymphocyte counts: increases in lymphocyte counts
  production of gamma-interferon: enhance production of gamma-interferon
